Measured values from PubChem BioAssay (NCI).
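Assay format: 96-well plates, 48-hour exposure. Definition used: TGI = concentration required for complete inhibition of growth.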

Tests used:
Assay in all cases: growth of human tumour cells (NCI), 48 h
[1] = system: 786-0 renal
[2] = system: A498 renal
[3] = system: A549 NSCLC
[4] = system: ACHN renal
[5] = system: CAKI-1 renal
[6] = system: CCRF-CEM leukemia
[7] = system: COLO 205 colon
[8] = system: DLD-1 colon
[9] = system: DMS 114 small cell lung
[10] = system: DMS 273 small cell lung
[11] = system: EKVX NSCLC
[12] = system: HCC-2998 colon
[13] = system: HCT-116 colon
[14] = system: HCT-15 colon
[15] = system: HL-60(TB) leukemia
[16] = system: HOP-18 NSCLC
[17] = system: HOP-62 NSCLC
[18] = system: HOP-92 NSCLC
[19] = system: HT29 colon
[20] = system: IGROV1 ovarian
[21] = system: K-562 leukemia
[22] = system: KM12 colon
[23] = system: KM20L2 colon
[24] = system: LOX IMVI melanoma
[25] = system: LXFL 529 NSCLC
[26] = system: M14 melanoma
[27] = system: M19-MEL melanoma
[28] = system: MALME-3M melanoma
[29] = system: MOLT-4 leukemia
[30] = system: NCI-H226 lung
[31] = system: NCI-H23 lung
[32] = system: NCI-H460 lung
[33] = system: NCI-H522 lung
[34] = system: OVCAR-3 ovarian
[35] = system: OVCAR-4 ovarian
[36] = system: OVCAR-5 ovarian
[37] = system: OVCAR-8 ovarian
[38] = system: RPMI-8226 leukemia
[39] = system: RXF 393 renal
[40] = system: RXF-631 renal
[41] = system: SF-268 CNS
[42] = system: SF-295 CNS
[43] = system: SF-539 CNS
[44] = system: SK-MEL-2 melanoma
[45] = system: SK-MEL-28 melanoma
[46] = system: SK-MEL-5 melanoma
[47] = system: SN12C renal
[48] = system: SNB-19 CNS
[49] = system: SNB-75 CNS
[50] = system: SNB-78 CNS
[51] = system: SR leukemia
[52] = system: SW-620 colon
[53] = system: TK-10 renal
[54] = system: U251 CNS
[55] = system: UACC-257 melanoma
[56] = system: UACC-62 melanoma
[57] = system: UO-31 renal
[58] = system: XF 498 CNS
[59] = system: SK-OV-3 ovarian

Measured: TGI

Cc1c(C(=O)C/C(=N/NC(=O)C[N+](C)(C)C)C(=O)Nc2ccc(Cl)cc2)[n+](=O)c2ccccc2n1O
> 100 µM: [1] | [2] | [3] | [4] | [5] | [6] | [7] | [8] | [9] | [10] | [11] | [12] | [13] | [14] | [15] | [16] | [17] | [18] | [19] | [20] | [21] | [22] | [23] | [24] | [25] | [26] | [27] | [28] | [29] | [30] | [31] | [32] | [33] | [34] | [35] | [36] | [37] | [38] | [39] | [40] | [41] | [42] | [43] | [44] | [45] | [46] | [47] | [48] | [49] | [50] | [51] | [52] | [53] | [54] | [55] | [56] | [57] | [58]

O=C(NC12CC3CC(CC(F)(C3)C1)C2)c1ccccc1
> 100 µM: [1] | [2] | [3] | [4] | [6] | [7] | [8] | [9] | [10] | [11] | [12] | [13] | [15] | [17] | [18] | [19] | [20] | [21] | [22] | [23] | [24] | [25] | [26] | [27] | [28] | [29] | [31] | [32] | [33] | [34] | [36] | [37] | [38] | [39] | [43] | [44] | [45] | [59] | [48] | [49] | [50] | [52] | [53] | [54] | [55] | [56] | [57] | [58]
